Assay [1] in a line: Inhibition of Peptidyl-prolyl cis-trans isomerase Trypanosoma cruzi cyclophilin (CL Brener strain, p19).
Assay [2] has as its system Trypanosoma cruzi. Put plainly: Compound was tested for the inhibition of Trypanosoma cruzi epimastigote growth after 72 hours of treatment. In kind it is functional, organism-based.
Assay [3] has as its system Trypanosoma cruzi. In words: Effective concentration required for the lysis of Trypanosoma cruzi trypomastigotes in blood stream after 24 hours of treatment. In kind it is functional, organism-based.

As a reminder, the IC50 is the concentration that gives 50% inhibition. A word on the EC50: it is the concentration giving half of the maximal effect. The low end stands for higher potency in that assay, the high end for lower potency in that assay.

Take `CC[C@@H]1NC(=O)[C@H]([C@H](O)C(C)C/C=C/c2ccccc2)N(C)C(=O)[C@H](C(C)C)N(C)C(=O)[C@H](CC(C)C)N(C)C(=O)[C@H](CC(C)C)N(C)C(=O)[C@@H](C)NC(=O)[C@H](C)NC(=O)[C@H](CC(C)C)N(C)C(=O)[C@H](C(C)C)NC(=O)[C@H](CC(C)C)N(C)C(=O)CN(C)C1=O` (stereo not given in full): the half-inhibitory concentration (IC50) amounted to 12.5 nM in assay [1] and 0.82 µM in the assay on Trypanosoma cruzi [2] (read-out: IC50). In the assay on Trypanosoma cruzi [3], the EC50 stood at 0.97 µM.
Take `CC[C@@H]1NC(=O)[C@H]([C@H](O)C(C)CCCc2ccccc2)N(C)C(=O)[C@H](C(C)C)N(C)C(=O)[C@H](CC(C)C)N(C)C(=O)[C@H](CC(C)C)N(C)C(=O)[C@@H](C)NC(=O)[C@H](C)NC(=O)[C@H](CC(C)C)N(C)C(=O)[C@H](C(C)C)NC(=O)[C@H](CC(C)C)N(C)C(=O)CN(C)C1=O` (stereo not given in full): the IC50 in assay [1] turned out to be 13.3 nM; with Trypanosoma cruzi [2] (read-out: IC50), 3.41 µM. In addition, the EC50 in the assay on Trypanosoma cruzi [3] turned out to be 2.66 µM.
Turning to `CCC/C=C(/C)[C@@H](O)[C@H]1C(=O)N[C@@H](CC)C(=O)N(C)CC(=O)N(C)[C@@H](CC(C)CO)C(=O)N[C@@H](C(C)C)C(=O)N(C)[C@@H](CC(C)C)C(=O)N[C@@H](C)C(=O)N[C@H](C)C(=O)N(C)[C@@H](CC(C)C)C(=O)N(C)[C@@H](CC(C)C)C(=O)N(C)[C@@H](C(C)C)C(=O)N1C` (stereo not given in full), the results for the IC50 (in assay [1]; in the assay with Trypanosoma cruzi [2] (read-out: IC50)) were 19.3 nM and 11.4 µM, respectively. Further, the EC50 in the assay with Trypanosoma cruzi [3] came out at 153 µM.
Regarding `CC[C@@H]1NC(=O)[C@H]([C@H](O)/C(C)=C\CCCOC)N(C)C(=O)[C@H](C(C)C)N(C)C(=O)[C@H](CC(C)C)N(C)C(=O)[C@H](CC(C)C)N(C)C(=O)[C@@H](C)NC(=O)[C@H](C)NC(=O)[C@H](CC(C)C)N(C)C(=O)[C@H](C(C)C)NC(=O)[C@H](CC(C)C)N(C)C(=O)CN(C)C1=O`, the IC50 in assay [1] was found to be 25.5 nM; with Trypanosoma cruzi [2] (read-out: IC50) it was 33.8 µM. The same compound returned an EC50 in the assay on Trypanosoma cruzi [3] of 76.1 µM.
For the compound `CCC/C=C(/C)[C@@H](O)[C@H]1C(=O)N[C@@H]([C@@H](C)OCCCO)C(=O)N(C)CC(=O)N(C)[C@@H](CC(C)C)C(=O)N[C@@H](C(C)C)C(=O)N(C)[C@@H](CC(C)C)C(=O)N[C@@H](C)C(=O)N[C@H](C)C(=O)N(C)[C@@H](CC(C)C)C(=O)N(C)[C@@H](CC(C)C)C(=O)N(C)[C@@H](C(C)C)C(=O)N1C`, the IC50 came to 22.1 nM in assay [1] and 18.4 µM in the assay on Trypanosoma cruzi [2] (read-out: IC50). Further, the 50% effective concentration (EC50) with Trypanosoma cruzi [3] was found to be 36.8 µM.
On to `CC[C@@H]1NC(=O)[C@H]([C@H](O)/C(C)=C\CCC(=O)OC(C)C)N(C)C(=O)[C@H](C(C)C)N(C)C(=O)[C@H](CC(C)C)N(C)C(=O)[C@H](CC(C)C)N(C)C(=O)[C@@H](C)NC(=O)[C@H](C)NC(=O)[C@H](CC(C)C)N(C)C(=O)[C@H](C(C)C)NC(=O)[C@H](CC(C)C)N(C)C(=O)CN(C)C1=O`, for which, in the assay on Trypanosoma cruzi [2] (read-out: IC50), the IC50 is 7.64 µM. In addition, a half-maximal response in the assay on Trypanosoma cruzi [3] (EC50) required 58.6 µM.
For the compound `C/C=C/C[C@@H](C)[C@@H](O)[C@H]1C(=O)N[C@@H](CC)C(=O)N(C)CC(=O)N(C)[C@@H](CC(C)C)C(=O)N[C@@H](C(C)C)C(=O)N(C)[C@@H](CC(C)C)C(=O)N[C@@H](C)C(=O)N[C@H](C)C(=O)N(C)[C@@H](CC(C)C)C(=O)N(C)[C@@H](CC(C)C)C(=O)N(C)[C@@H](C(C)C)C(=O)N1C` [CYCLOSPORINE], the IC50 in the assay with Trypanosoma cruzi [2] came out at 5.39 µM. Further, in the assay on Trypanosoma cruzi [3], it took 7.19 µM to reach a half-maximal effect (EC50).
For `C/C=C/CC(C)[C@@H](O)[C@H]1C(=O)N[C@@H](CC)C(=O)N(C)CC(=O)N(C)[C@@H](CC(C)C)C(=O)N[C@@H](C(C)C)C(=O)N(C)[C@@H](CC(C)C)C(=O)N[C@@H](C)C(=O)N[C@H]([C@H](C)O)C(=O)N(C)[C@@H](CC(C)C)C(=O)N(C)[C@@H](CC(C)C)C(=O)N(C)[C@@H](C(C)C)C(=O)N1C` (stereo not given in full), the IC50 in assay [1] stood at 16.9 nM; in the assay on Trypanosoma cruzi [2] (read-out: IC50), 6.93 µM. For the same compound, it took 13.4 µM to reach a half-maximal effect in the assay on Trypanosoma cruzi [3] (EC50).
The corresponding values for `CC[C@@H]1NC(=O)[C@H]([C@H](O)/C(C)=C\CCCN=[N+]=[N-])N(C)C(=O)[C@H](C(C)C)N(C)C(=O)[C@H](CC(C)C)N(C)C(=O)[C@H](CC(C)C)N(C)C(=O)[C@@H](C)NC(=O)[C@H](C)NC(=O)[C@H](CC(C)C)N(C)C(=O)[C@H](C(C)C)NC(=O)[C@H](CC(C)C)N(C)C(=O)CN(C)C1=O` are 23.2 nM, 10.6 µM and 7.98 µM.

For the origin of these results see ChEMBL document CHEMBL1137829, “In vitro anti-parasitic activity of Cyclosporin A analogs on Trypanosoma cruzi” (Bioorg Med Chem Lett, 2004).
